Reference: patent US10117819B2, “Composition for hair frizz reduction” (The Procter & Gamble Company, priority 2014, dated 2018)

Test: Penetration amount of moisture control material inside hair (extraction, HPLC)
Conditions: compared to corresponding composition without 2-hydroxyethyl urea (XXVII and XXVIII)
Method: Each hair tress is extracted 3 times with 0.1% TFA (Trifluoroacetic acid) in methanol and the individual extracts are analyzed separately using HPLC method.

O=C(O)c1ccccc1O [Salicylic acid]
Increase of penetration inside hair with 2% of 2-hydroxyethyl urea: 14%
